The values below come from patent US20250250269A1, “HETEROCYCLIC GLP-1 AGONISTS” (Gasherbrum Bio, Inc., priority 2022, published 2025).

The target of this assay is T1, GLP-1 Receptor (Homo sapiens, UniProt P43220).
T1 construct: host or cells: HEK293/CRE-Luc (HEK293/GLP1R/CRE-LUC)
Briefly: GLP-1R agonist cAMP stimulation assay (HEK293/GLP1R/CRE-LUC cells, Cisbio cAMP dynamic 2 kit). The settings on record: HEK293/CRE-Luc cells stably expressing the GLP-1 Receptor, 30 min at 37° C. The assay is classed as cell-based. The procedure:
Activation of GLP-1 receptor is known to stimulate cyclic AMP (cAMP) production in cells which indicates primary coupling to the Gas subunit of the G protein heterotrimeric complex.
To optimize functional activity directed toward Gas coupling, a HEK293/CRE-Luc cell line developed by HDB stably expressing the GLP-1 Receptor was used. 200× concentration of compound working solutions were prepared (Agilent Technologies Bravo) with ½ log serial dilution in 384-well Echo LDV plate (Labcyte, Cat #LP-0200). […] 200× concentration of compound working solutions were moved to 384-well white low volume plate (Greiner, Cat #784075) using Labcyte ECHO550. 1×10^5 cells/mL HEK293/GLP1R/CRE-LUC (HD Biosciences) cell suspensions prepared with assay buffer [DPBS containing 0.5 mM IBMX (Sigma, Cat #15879) and 0.1% BSA (GENVIEW, Cat #FA016-100g)], 10 μL cell suspensions were added to each well of previous generated assay plate which already contains […] compound at 200×concentration using ThermoFisher Multidrop Combi (1000 cells/well). Seal the plate and incubate at 37° C. with 5% CO2 for 30 min.
After incubation the cAMP assay signal was generated using cAMP dynamic 2 Kit (Cisbio). 5 μL cAMP-d2 working solution was added to each well, followed with 5 μL Anti-cAMP antibody-cryptate working solution added to each well using ThermoFisher Multidrop Combi. Incubate at room temperature for 1 hour protected from light. Read the fluorescence at 665 and 615 nm with Reader PerkinElmer EnVision.

T1 sequence (P43220 24-463, species assumed): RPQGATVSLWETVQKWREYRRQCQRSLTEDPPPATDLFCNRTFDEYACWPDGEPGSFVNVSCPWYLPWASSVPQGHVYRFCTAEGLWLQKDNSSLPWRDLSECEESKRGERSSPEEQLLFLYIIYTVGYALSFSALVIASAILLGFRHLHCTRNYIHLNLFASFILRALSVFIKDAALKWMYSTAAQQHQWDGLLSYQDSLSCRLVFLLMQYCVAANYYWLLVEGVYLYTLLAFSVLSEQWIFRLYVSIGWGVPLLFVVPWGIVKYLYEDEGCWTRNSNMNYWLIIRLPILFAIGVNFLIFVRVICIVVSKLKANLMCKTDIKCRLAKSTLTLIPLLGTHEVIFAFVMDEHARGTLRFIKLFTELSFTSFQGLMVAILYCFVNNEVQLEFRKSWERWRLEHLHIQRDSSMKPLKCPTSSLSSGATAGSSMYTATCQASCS

Broadly, the EC50 is the concentration giving half of the maximal effect. A lower EC50 goes with a more potent agent. With `Fc1cc(Cl)ccc1COc1cccc([C@H]2CCN(Cc3nc4cc(-c5nnc(C(F)(F)F)[nH]5)ncc4n3C[C@@H]3CCO3)C[C@@H]2F)n1` (single isomer, unassigned) [Compound 58], the EC50 was < 1 nM.

As to `Fc1cc(Cl)ccc1COc1cccc([C@@H]2CCN(Cc3nc4cc(-c5nnc(C(F)(F)F)[nH]5)ncc4n3C[C@@H]3CCO3)C[C@H]2F)n1` (single isomer, unassigned) [Compound 59], the EC50 was < 1 nM.

`C[C@]1(c2ccc(Cl)cn2)Oc2cccc([C@H]3CCN(Cc4nc5cc(-c6nnc(C(F)(F)F)[nH]6)cnc5n4C[C@@H]4CCO4)C[C@@H]3F)c2O1` (single isomer, unassigned) [Compound 60]: the EC50 is < 1 nM.

Take `C[C@]1(c2ccc(Cl)cn2)Oc2cccc([C@@H]3CCN(Cc4nc5cc(-c6nnc(C(F)(F)F)[nH]6)cnc5n4C[C@@H]4CCO4)C[C@H]3F)c2O1` (single isomer, unassigned) [Compound 61]: the EC50 is < 1 nM.

Regarding `C[C@]1(c2ccc(Cl)cn2)Oc2cccc([C@H]3CCN(Cc4nc5cc(-c6nnc(C(F)(F)F)[nH]6)ncc5n4C[C@@H]4CCO4)C[C@@H]3F)c2O1` (single isomer, unassigned) [Compound 62], the EC50 was < 1 nM.

Regarding `C[C@]1(c2ccc(Cl)cn2)Oc2cccc([C@@H]3CCN(Cc4nc5cc(-c6nnc(C(F)(F)F)[nH]6)ncc5n4C[C@@H]4CCO4)C[C@H]3F)c2O1` (single isomer, unassigned) [Compound 63], the EC50 was < 1 nM.

Take `Fc1ccc(COc2cccc(C3CCN(Cc4nc5cc(-c6nnc(C(F)(F)F)[nH]6)ncc5n4C[C@@H]4CCO4)CC3)n2)c(F)c1` [Compound 1, 2-[(2,4-difluorophenyl)methoxy]-6-{1-[(3-{[(2S)-oxetan-2-yl]methyl}-6-[5-(trifluoromethyl)-4H-1,2,4-triazol-3-yl]-3H-imidazo[4,5-c]pyridin-2-yl)methyl]piperidin-4-yl}pyridine]: the EC50 was < 1 nM.

Turning to `COc1cc(Cl)ccc1COc1cccc(C2CCN(Cc3nc4cc(-c5nnc(C(F)(F)F)[nH]5)ncc4n3C[C@@H]3CCO3)CC2)n1` [Compound 2, (S)-2-((4-(6-((4-chloro-2-methoxybenzyl)oxy)pyridin-2-yl)piperidin-1-yl)methyl)-3-(oxetan-2-ylmethyl)-6-(5-(trifluoromethyl)-4H-1,2,4-triazol-3-yl)-3H-imidazo[4,5-c]pyridine], the EC50 is < 1 nM.

Regarding `COc1c(F)ccc(COc2cccc(C3CCN(Cc4nc5cc(-c6nnc(C(F)(F)F)[nH]6)ncc5n4C[C@@H]4CCO4)CC3)n2)c1F` [Compound 3, (S)-2-((4-(6-((2,4-difluoro-3-methoxybenzyl)oxy)pyridin-2-yl)piperidin-1-yl)methyl)-3-(oxetan-2-ylmethyl)-6-(5-(trifluoromethyl)-4H-1,2,4-triazol-3-yl)-3H-imidazo[4,5-c]pyridine], the EC50 was < 1 nM.

With `Cc1c(Cl)ccc(COc2cccc(C3CCN(Cc4nc5cc(-c6nnc(C(F)(F)F)[nH]6)ncc5n4C[C@@H]4CCO4)CC3)n2)c1F` [Compound 4, 2-[(4-chloro-2-fluoro-3-methylphenyl)methoxy]-6-{1-[(3-{[(2S)-oxetan-2-yl]methyl}-6-[5-(trifluoromethyl)-4H-1,2,4-triazol-3-yl]-3H-imidazo[4,5-c]pyridin-2-yl)methyl]piperidin-4-yl}pyridine], the EC50 is < 1 nM.

Turning to `Cc1c(F)ccc(COc2cccc(C3CCN(Cc4nc5cc(-c6nnc(C(F)(F)F)[nH]6)ncc5n4C[C@@H]4CCO4)CC3)n2)c1F` [Compound 5, 2-[(2,4-difluoro-3-methylphenyl)methoxy]-6-{1-[(3-{[(2S)-oxetan-2-yl]methyl}-6-[5-(trifluoromethyl)-4H-1,2,4-triazol-3-yl]-3H-imidazo[4,5-c]pyridin-2-yl)methyl]piperidin-4-yl}pyridine], the EC50 was < 1 nM.

Regarding `Fc1cc(Cl)cc(F)c1COc1cccc(C2CCN(Cc3nc4cc(-c5nnc(C(F)(F)F)[nH]5)ncc4n3C[C@@H]3CCO3)CC2)n1` [Compound 6, (S)-2-((4-(6-((4-chloro-2,6-difluorobenzyl)oxy)pyridin-2-yl)piperidin-1-yl)methyl)-3-(oxetan-2-ylmethyl)-6-(5-(trifluoromethyl)-4H-1,2,4-triazol-3-yl)-3H-imidazo[4,5-c]pyridine], the EC50 is < 1 nM.

In the case of `FC(F)Oc1ccc(COc2cccc(C3CCN(Cc4nc5cc(-c6nnc(C(F)(F)F)[nH]6)ncc5n4C[C@@H]4CCO4)CC3)n2)cn1` [Compound 7, 2-{[6-(difluoromethoxy)pyridin-3-yl]methoxy}-6-{1-[(3-{[(2S)-oxetan-2-yl]methyl}-6-[5-(trifluoromethyl)-4H-1,2,4-triazol-3-yl]-3H-imidazo[4,5-c]pyridin-2-yl)methyl]piperidin-4-yl}pyridine], the EC50 is < 1 nM.

As to `FC(F)Oc1cc(COc2cccc(C3CCN(Cc4nc5cc(-c6nnc(C(F)(F)F)[nH]6)ncc5n4C[C@@H]4CCO4)CC3)n2)ccn1` [Compound 8, (S)-2-((4-(6-((2-(difluoromethoxy)pyridin-4-yl)methoxy)pyridin-2-yl)piperidin-1-yl)methyl)-3-(oxetan-2-ylmethyl)-6-(5-(trifluoromethyl)-4H-1,2,4-triazol-3-yl)-3H-imidazo[4,5-c]pyridine], the EC50 is < 1 nM.

On to `FC(F)Oc1cccc(COc2cccc(C3CCN(Cc4nc5cc(-c6nnc(C(F)(F)F)[nH]6)ncc5n4C[C@@H]4CCO4)CC3)n2)n1` [Compound 9, (S)-2-((4-(6-((6-(difluoromethoxy)pyridin-2-yl)methoxy)pyridin-2-yl)piperidin-1-yl)methyl)-3-(oxetan-2-ylmethyl)-6-(5-(trifluoromethyl)-4H-1,2,4-triazol-3-yl)-3H-imidazo[4,5-c]pyridine], for which the EC50 was < 1 nM.

As to `FC(F)(F)Oc1cccc(COc2cccc(C3CCN(Cc4nc5cc(-c6nnc(C(F)(F)F)[nH]6)ncc5n4C[C@@H]4CCO4)CC3)n2)n1` [Compound 10, (S)-3-(oxetan-2-ylmethyl)-2-((4-(6-((6-(trifluoromethoxy)pyridin-2-yl)methoxy)pyridin-2-yl)piperidin-1-yl)methyl)-6-(5-(trifluoromethyl)-4H-1,2,4-triazol-3-yl)-3H-imidazo[4,5-c]pyridine], the EC50 is < 1 nM.

Turning to `FC(F)(F)Oc1cccc(COc2cccc(C3CCN(Cc4nc5cc(-c6nnc(C(F)(F)F)[nH]6)ncc5n4C[C@@H]4CCO4)CC3)n2)c1` [Compound 11, (S)-3-(oxetan-2-ylmethyl)-2-((4-(6-((3-(trifluoromethoxy)benzyl)oxy)pyridin-2-yl)piperidin-1-yl)methyl)-6-(5-(trifluoromethyl)-4H-1,2,4-triazol-3-yl)-3H-imidazo[4,5-c]pyridine], the EC50 is < 1 nM.

Regarding `Cc1ccc(COc2cccc(C3CCN(Cc4nc5cc(-c6nnc(C(F)(F)F)[nH]6)ncc5n4C[C@@H]4CCO4)CC3)n2)nc1OC(F)F` [Compound 12, (S)-2-((4-(6-((6-(difluoromethoxy)-5-methylpyridin-2-yl)methoxy)pyridin-2-yl)piperidin-1-yl)methyl)-3-(oxetan-2-ylmethyl)-6-(5-(trifluoromethyl)-4H-1,2,4-triazol-3-yl)-3H-imidazo[4,5-c]pyridine], the half-maximal effective concentration (EC50) was < 1 nM.

On to `FC(F)Oc1nc(COc2cccc(C3CCN(Cc4nc5cc(-c6nnc(C(F)(F)F)[nH]6)ncc5n4C[C@@H]4CCO4)CC3)n2)ccc1Cl` [Compound 13, (S)-2-((4-(6-((5-chloro-6-(difluoromethoxy)pyridin-2-yl)methoxy)pyridin-2-yl)piperidin-1-yl)methyl)-3-(oxetan-2-ylmethyl)-6-(5-(trifluoromethyl)-4H-1,2,4-triazol-3-yl)-3H-imidazo[4,5-c]pyridine], for which the EC50 was < 1 nM.

`Fc1ccc(COc2cccc(C3CCN(Cc4nc5cc(-c6nnc(C(F)(F)F)[nH]6)ncc5n4C[C@@H]4CCO4)CC3)n2)nc1OC(F)F` [Compound 14, (S)-2-((4-(6-((6-(difluoromethoxy)-5-fluoropyridin-2-yl)methoxy)pyridin-2-yl)piperidin-1-yl)methyl)-3-(oxetan-2-ylmethyl)-6-(5-(trifluoromethyl)-4H-1,2,4-triazol-3-yl)-3H-imidazo[4,5-c]pyridine]: the EC50 is < 1 nM.

Regarding `Cc1ccc(COc2cccc(C3CCN(Cc4nc5cc(-c6nnc(C(F)(F)F)[nH]6)ncc5n4C[C@@H]4CCO4)CC3)n2)c(OC(F)F)n1` [Compound 15, (S)-2-((4-(6-((2-(difluoromethoxy)-6-methylpyridin-3-yl)methoxy)pyridin-2-yl)piperidin-1-yl)methyl)-3-(oxetan-2-ylmethyl)-6-(5-(trifluoromethyl)-4H-1,2,4-triazol-3-yl)-3H-imidazo[4,5-c]pyridine], the EC50 was < 1 nM.

On to `FC(F)(F)c1nnc(-c2cc3nc(CN4CCC(c5cccc(OCc6ccc(Cl)c7c6OCO7)n5)CC4)n(C[C@@H]4CCO4)c3cn2)[nH]1` [Compound 16, (S)-2-((4-(6-((7-chlorobenzo[d][1,3]dioxol-4-yl)methoxy)pyridin-2-yl)piperidin-1-yl)methyl)-3-(oxetan-2-ylmethyl)-6-(5-(trifluoromethyl)-4H-1,2,4-triazol-3-yl)-3H-imidazo[4,5-c]pyridine], for which the EC50 is < 1 nM.
